Data as given in ChEMBL document CHEMBL1201862, “PubChem BioAssay data set” (2004).
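Compound exposure: 48 hours, 5 concentrations, 96-well plates. GI50: concentration for 50% inhibition of growth.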 Active and inactive are the calls of the source. Cut-off read from the data, not from the text of the source: active = GI50 up to about 1.1 µM and inactive = higher.

Legend:
Assay in all cases: NCI anticancer screen, dose series, 48 h
786-0 = system: 786-0
CAKI-1 = system: CAKI-1
CCRF-CEM = system: CCRF-CEM
COLO 205 = system: COLO 205
HCC 2998 = system: HCC 2998
HOP-92 = system: HOP-92
KM12 = system: KM12
LOX IMVI = system: LOX IMVI
MDA-MB-435 = system: MDA-MB-435
MDA-N = system: MDA-N
Malme-3M = system: Malme-3M
NCI/ADR-RES = system: NCI/ADR-RES
OVCAR-4 = system: OVCAR-4
RPMI-8226 = system: RPMI-8226
RXF 393 = system: RXF 393
SK-OV-3 = system: SK-OV-3
SNB-19 = system: SNB-19
T47D = system: T47D
UACC-257 = system: UACC-257
HOP-18 = system: HOP-18

Structure (SMILES) | GI50 (786-0) | GI50 (CAKI-1) | GI50 (CCRF-CEM) | GI50 (COLO 205) | GI50 (HCC 2998) | GI50 (HOP-92) | GI50 (KM12) | GI50 (LOX IMVI) | GI50 (MDA-MB-435) | GI50 (MDA-N) | GI50 (Malme-3M) | GI50 (NCI/ADR-RES) | GI50 (OVCAR-4) | GI50 (RPMI-8226) | GI50 (RXF 393) | GI50 (SK-OV-3) | GI50 (SNB-19) | GI50 (T47D) | GI50 (UACC-257) | GI50 (HOP-18)
COCC12CCC(OC)C34C5CC6(O)C(OC)CC(OC(C)=O)(C5C6OC(=O)c5ccccc5)C(C(OC)C13)C4N(C)C2 (centres undefined) | > 100 µM (inactive) | > 100 µM (inactive) | > 100 µM (inactive) | > 100 µM (inactive) | > 100 µM (inactive) | > 100 µM (inactive) | > 100 µM (inactive) | > 100 µM (inactive) | > 100 µM (inactive) | > 100 µM (inactive) | > 100 µM (inactive) | > 100 µM (inactive) | > 100 µM (inactive) | > 100 µM (inactive) | > 100 µM (inactive) | 43 µM (inactive) | > 100 µM (inactive) | > 100 µM (inactive) | > 100 µM (inactive) | –
COC(=O)N1CCc2c(nc(N(C)CCO)[nH]c2=O)C1 | > 100 µM (inactive) | > 100 µM (inactive) | > 100 µM (inactive) | > 100 µM (inactive) | > 100 µM (inactive) | > 100 µM (inactive) | > 100 µM (inactive) | > 100 µM (inactive) | – | – | > 100 µM (inactive) | – | – | > 100 µM (inactive) | > 100 µM (inactive) | > 100 µM (inactive) | > 100 µM (inactive) | – | > 100 µM (inactive) | > 100 µM (inactive)
COC(=O)C1=C(C(=O)OC)SC(=CC#CC=C2SC(C(=O)OC)=C(C(=O)OC)S2)S1 | 5.79 µM (inactive) | 25.5 µM (inactive) | > 100 µM (inactive) | 11.7 µM (inactive) | 10.8 µM (inactive) | 16.2 µM (inactive) | > 54.6 µM (inactive) | 9.71 µM (inactive) | – | – | 15.7 µM (inactive) | – | 9.33 µM (inactive) | > 100 µM (inactive) | – | 16.5 µM (inactive) | 6.41 µM (inactive) | – | > 54.3 µM (inactive) | 8.87 µM (inactive)
CC1OC(OC2C(O[C@H]3CC[C@@]4(C)C(=CC[C@H]5[C@@H]6C[C@@H]7O[C@]8(CC[C@@H](C)CO8)[C@@H](C)[C@@H]7[C@@]6(C)CC[C@@H]54)C3)OC(CO)C(O)C2OC2OC(CO)C(O)C(O)C2O)C(O)C(O)C1O (some centres undefined) | 1.77 µM (inactive) | 3.5 µM (inactive) | 14.3 µM (inactive) | 1.73 µM (inactive) | 1.65 µM (inactive) | 1.79 µM (inactive) | 2.21 µM (inactive) | 2.38 µM (inactive) | 1.81 µM (inactive) | 1.72 µM (inactive) | 1.69 µM (inactive) | 2.24 µM (inactive) | 1.58 µM (inactive) | 2.54 µM (inactive) | 2.17 µM (inactive) | 1.8 µM (inactive) | 1.87 µM (inactive) | 2.31 µM (inactive) | 1.86 µM (inactive) | –
COP(=O)(OC)OCN(C)CC/C=C(\C)CC/C=C(\C)CCC=C(C)C | 15.1 µM (inactive) | 17.6 µM (inactive) | 10.4 µM (inactive) | 16.9 µM (inactive) | 11.6 µM (inactive) | 17.6 µM (inactive) | 15.2 µM (inactive) | 15.8 µM (inactive) | 18.5 µM (inactive) | 14.9 µM (inactive) | 14.9 µM (inactive) | 13 µM (inactive) | 31.3 µM (inactive) | 10.6 µM (inactive) | 16.9 µM (inactive) | 28.5 µM (inactive) | 10.4 µM (inactive) | 16.4 µM (inactive) | 5.02 µM (inactive) | –
N#CC(C#N)=Cc1c(O)ccc2ccccc12 | 13.3 µM (inactive) | 14.1 µM (inactive) | 1.57 µM (inactive) | 15.2 µM (inactive) | 16 µM (inactive) | 0.422 µM (active) | 17.8 µM (inactive) | 12.1 µM (inactive) | 14.4 µM (inactive) | 12.7 µM (inactive) | 17 µM (inactive) | 17.3 µM (inactive) | 18.3 µM (inactive) | 11.9 µM (inactive) | 15.2 µM (inactive) | 15.8 µM (inactive) | 15.4 µM (inactive) | 13.3 µM (inactive) | 16.8 µM (inactive) | –
CC1CCP(=O)(c2ccccc2)c2ccccc21 (centres undefined) | > 100 µM (inactive) | – | 37.7 µM (inactive) | 51.8 µM (inactive) | 38.8 µM (inactive) | – | > 100 µM (inactive) | 24.3 µM (inactive) | – | – | > 100 µM (inactive) | – | 38.5 µM (inactive) | 64.3 µM (inactive) | > 100 µM (inactive) | > 100 µM (inactive) | > 100 µM (inactive) | – | 65.9 µM (inactive) | > 100 µM (inactive)
Cc1cc(C)n(-c2nc(C)c(CCO)c(=O)[nH]2)n1 | > 100 µM (inactive) | > 10 µM (inactive) | > 100 µM (inactive) | > 100 µM (inactive) | > 100 µM (inactive) | > 100 µM (inactive) | > 100 µM (inactive) | > 100 µM (inactive) | > 100 µM (inactive) | > 100 µM (inactive) | > 100 µM (inactive) | 52 µM (inactive) | > 100 µM (inactive) | > 100 µM (inactive) | > 100 µM (inactive) | > 100 µM (inactive) | > 100 µM (inactive) | > 100 µM (inactive) | > 100 µM (inactive) | –
